Experimental data: ChEMBL document CHEMBL1124940, “N-[(arylmethoxy)phenyl] carboxylic acids, hydroxamic acids, tetrazoles, and sulfonyl carboxamides. Potent orally active leukotriene D4 antagonists of novel structure” (J Med Chem, 1990)

How the values were obtained:
[1] = system: Cavia porcellus; assay: Tested for the inhibition of LTD4-induced broncho constriction in Guinea pig; injected intraduodenally at a dose of 25 mg/kg; format: functional; conditions: route intraduodenal
[2] = system: Cavia porcellus; assay: Inhibition of ovalbumin induced bronchoconstriction in Guinea pig, compound injected intragastrically, dose is 10 mg/kg; format: functional; conditions: po, route intragastric
[3] = system: Cavia porcellus; assay: Inhibition of ovalbumin induced bronchoconstriction in Guinea pig, compound injected intraduodenally at a dose of 10 mg/kg; format: functional; conditions: route intraduodenal
[4] = system: Cavia porcellus; assay: Inhibition of LTD4-induced broncho constriction in Guinea pig after intraduodenal administration of a dose of 3 mg/kg; format: functional
[5] = system: Cavia porcellus; assay: Inhibition of ovalbumin induced bronchoconstriction in Guinea pig, compound injected intraduodenally at a dose of 25 mg/kg; format: functional; conditions: route intraduodenal
[6] = system: Cavia porcellus; assay: Inhibition of LTD4-induced broncho constriction in Guinea pig, compound injected intraduodenally at a dose of 25 mg/kg; format: functional; conditions: route intraduodenal
[7] = system: Cavia porcellus; assay: Inhibition of LTD4-induced bronchoconstriction in Guinea pig after intragastrical administration of dose of 3 mg/kg; format: functional; conditions: po, route intragastric
[8] = system: Cavia porcellus; assay: Inhibition of ovalbumin induced bronchoconstriction in Guinea pig, compound injected intragastrically, dose is 25 mg/kg; format: functional; conditions: po, route intragastric
[9] = system: Cavia porcellus; assay: Inhibition of LTD4-induced bronchoconstriction in Guinea pig after intragastrical administration of dose of 25 mg/kg; format: functional; conditions: po, route intragastric
[10] = system: Rattus norvegicus; assay: Antiinflammatory effect was studied in a rat carrageenan paw edema (CE) assay at 50 mg/kg; format: functional
[11] = biological target: T1, Cyclooxygenase (Rattus norvegicus, UniProt P35355+Q63921); assay: Concentration that produces 50% inhibition of A-23187-stimulated radiolabeled 5-HETE and TXB2 synthesis by Prostaglandin G/H synthase; format: protein assay
T1 sequence (P35355 whole entry): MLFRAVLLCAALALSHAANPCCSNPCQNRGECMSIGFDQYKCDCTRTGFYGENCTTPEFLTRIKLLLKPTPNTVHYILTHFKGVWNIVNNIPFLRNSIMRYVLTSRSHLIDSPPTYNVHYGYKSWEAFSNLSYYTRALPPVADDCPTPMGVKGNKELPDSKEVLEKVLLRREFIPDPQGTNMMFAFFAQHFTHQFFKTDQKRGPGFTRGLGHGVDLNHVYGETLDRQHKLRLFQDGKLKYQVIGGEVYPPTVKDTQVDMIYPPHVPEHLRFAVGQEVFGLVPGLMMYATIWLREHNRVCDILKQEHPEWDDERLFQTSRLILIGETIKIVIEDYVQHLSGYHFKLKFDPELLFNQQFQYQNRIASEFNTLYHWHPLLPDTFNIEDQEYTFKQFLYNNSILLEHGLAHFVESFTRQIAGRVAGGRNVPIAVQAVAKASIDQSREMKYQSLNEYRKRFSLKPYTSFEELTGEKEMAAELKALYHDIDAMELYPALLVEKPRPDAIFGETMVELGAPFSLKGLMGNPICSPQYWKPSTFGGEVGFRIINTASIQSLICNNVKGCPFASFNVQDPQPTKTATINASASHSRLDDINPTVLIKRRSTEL
T1 sequence (Q63921 whole entry): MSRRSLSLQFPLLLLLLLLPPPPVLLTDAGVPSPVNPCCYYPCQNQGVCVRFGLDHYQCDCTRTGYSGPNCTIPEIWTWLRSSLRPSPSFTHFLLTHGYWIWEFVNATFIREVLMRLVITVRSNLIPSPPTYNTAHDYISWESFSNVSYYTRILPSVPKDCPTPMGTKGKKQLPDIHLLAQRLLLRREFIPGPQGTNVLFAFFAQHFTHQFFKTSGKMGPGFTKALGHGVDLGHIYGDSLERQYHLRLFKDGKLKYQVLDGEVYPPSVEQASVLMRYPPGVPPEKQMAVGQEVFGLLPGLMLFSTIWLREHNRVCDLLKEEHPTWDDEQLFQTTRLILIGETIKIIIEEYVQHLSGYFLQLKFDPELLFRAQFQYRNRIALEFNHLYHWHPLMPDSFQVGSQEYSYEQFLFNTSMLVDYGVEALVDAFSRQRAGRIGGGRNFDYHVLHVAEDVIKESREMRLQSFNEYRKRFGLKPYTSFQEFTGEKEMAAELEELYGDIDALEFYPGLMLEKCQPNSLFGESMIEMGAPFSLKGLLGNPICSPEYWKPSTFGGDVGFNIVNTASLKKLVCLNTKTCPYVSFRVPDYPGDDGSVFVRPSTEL

[12] = system: Cavia porcellus; assay: Tested for the inhibition of ovalbumin induced bronchoconstriction in Guinea pig, compound injected intragastrically at dose of 10 mg/kg.; format: functional; conditions: po, route intragastric
[13] = system: Cavia porcellus; assay: Tested for the inhibition of LTD4-induced bronchoconstriction in Guinea pig, compound injected intragastrically at dose of 3 mg/kg.; format: functional; conditions: po, route intragastric
[14] = species: Cavia porcellus; assay: Dose of antagonist that produces 50% inhibition of ovalbumin-induced bronchoconstriction.; format: functional
[15] = biological target: T2, Polyunsaturated fatty acid 5-lipoxygenase (Rattus norvegicus, UniProt P12527); assay: Concentration that produces 50% inhibition of A-23187-stimulated radiolabeled 5-HETE and TXB2 synthesis by PMN 5-lipoxygenase.
T2 sequence (P12527 whole entry): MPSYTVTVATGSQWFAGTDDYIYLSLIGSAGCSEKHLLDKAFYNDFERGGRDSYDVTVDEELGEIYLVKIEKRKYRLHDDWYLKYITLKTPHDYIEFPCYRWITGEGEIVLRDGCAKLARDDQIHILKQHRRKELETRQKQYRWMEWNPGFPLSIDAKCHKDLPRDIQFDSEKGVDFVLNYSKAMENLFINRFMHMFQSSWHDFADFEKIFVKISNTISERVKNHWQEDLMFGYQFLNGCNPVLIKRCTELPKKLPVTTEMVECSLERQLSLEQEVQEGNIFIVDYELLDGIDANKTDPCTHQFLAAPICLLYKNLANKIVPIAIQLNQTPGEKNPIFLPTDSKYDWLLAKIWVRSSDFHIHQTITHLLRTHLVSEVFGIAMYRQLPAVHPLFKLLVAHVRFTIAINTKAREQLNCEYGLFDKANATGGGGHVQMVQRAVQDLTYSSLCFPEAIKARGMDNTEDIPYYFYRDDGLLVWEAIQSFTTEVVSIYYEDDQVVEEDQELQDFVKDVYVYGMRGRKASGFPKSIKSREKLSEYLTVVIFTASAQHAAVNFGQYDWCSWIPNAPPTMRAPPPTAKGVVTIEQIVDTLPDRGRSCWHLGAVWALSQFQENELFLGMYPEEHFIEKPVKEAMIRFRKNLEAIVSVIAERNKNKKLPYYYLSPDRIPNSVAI

[16] = system: Cavia porcellus; assay: In vitro inhibition of LTD4-induced bronchoconstriction into isolated guinea pig trachea by injecting intragastrically; format: functional; conditions: po
[17] = system: Cavia porcellus; assay: Inhibition of LTD4-induced broncho constriction in Guinea pig after intragastrical administration of a dose of 25 mg/kg; format: functional; conditions: po, route intragastric
[18] = system: Cavia porcellus; assay: Dissociation constant was determined in vitro after intraduodenal administration in isolated guinea pig trachea; format: ADME, organism-based; conditions: in vivo, other
[19] = system: Cavia porcellus; assay: Tested for the inhibition of LTD4-induced bronchoconstriction in Guinea pig, compound injected intraduodenally, dose of 3 mg/kg; format: functional; conditions: route intraduodenal
[20] = system: Cavia porcellus; assay: Inhibition of ovalbumin-induced broncho constriction in Guinea pig after intraduodenal administration of a dose of 25 mg/kg; format: functional
[21] = system: Cavia porcellus; assay: Tested for the inhibition of ovalbumin- induced bronchoconstriction in Guinea pig, compound injected intragastrically at dose of 25 mg/kg.; format: functional; conditions: po, route intragastric
[22] = system: Cavia porcellus; assay: Tested for the inhibition of LTD4-induced bronchoconstriction in Guinea pig, injected intragastrically, dose is 3 mg/kg.; format: functional; conditions: po, route intragastric
[23] = system: Cavia porcellus; assay: Tested for the inhibition of LTD4-induced bronchoconstriction in Guinea pig, injected intraduodenally, dose is 10 mg/kg; format: functional; conditions: route intraduodenal
[24] = system: Cavia porcellus; assay: Inhibition of ovalbumin-induced broncho constriction in Guinea pig after intraduodenal administration of a dose of 10 mg/kg; format: functional
[25] = system: Cavia porcellus; assay: Tested for the inhibition of LTD4-induced broncho constriction in Guinea pig, injected intraduodenally at a dose of 25 mg/kg; format: functional; conditions: route intraduodenal
[26] = system: Cavia porcellus; assay: Inhibition of LTD4-induced broncho constriction in Guinea pig after intraduodenal administration of a dose of 25 mg/kg; format: functional
[27] = system: Cavia porcellus; assay: Tested for the inhibition of LTD4-induced bronchoconstriction in Guinea pig, compound injected intragastrically at dose of 3 mg/kg; format: functional; conditions: po, route intragastric
[28] = system: Cavia porcellus; assay: Tested for the inhibition of ovalbumin- induced bronchoconstriction in Guinea pig, injected intragastrically, dose of 25 mg/kg; format: functional; conditions: po, route intragastric
[29] = system: Cavia porcellus; assay: Tested for the inhibition of LTD4-induced bronchoconstriction in Guinea pig, injected intraduodenally, dose is 3 mg/kg; format: functional; conditions: route intraduodenal
[30] = system: Rattus norvegicus; assay: Antiinflammatory effect was studied in a rat carrageenan paw edema (CE) assay at a dose of 50 mg/kg; format: functional
[31] = system: Cavia porcellus; assay: Inhibition of LTD4-induced broncho constriction in Guinea pig after intragastrical administration of a dose of 3 mg/kg; format: functional; conditions: po, route intragastric
[32] = system: Cavia porcellus; assay: In vitro inhibition of LTD4-induced bronchoconstriction into isolated guinea pig trachea by injecting intraduodenally; format: functional; conditions: intraduodenal
[33] = system: Cavia porcellus; assay: Tested for the inhibition of ovalbumin- induced bronchoconstriction in Guinea pig, injected intragastrically, dose of 10 mg/kg; format: functional; conditions: po, route intragastric
[34] = species: Cavia porcellus; assay: Dose of antagonist that produces 50% inhibition of ovalbumin-induced bronchoconstriction; format: functional
[35] = biological target: T2, Polyunsaturated fatty acid 5-lipoxygenase; assay: Concentration that produces 50% inhibition of A-23187-stimulated radiolabeled 5-HETE and TXB2 synthesis by PMN 5-lipoxygenase; format: functional
[36] = system: Cavia porcellus; assay: In vitro inhibition of ovalbumin-induced bronchoconstriction in isolated guinea pig trachea by injecting intraduodenally; format: functional; conditions: intraduodenal
[37] = system: Cavia porcellus; assay: -log dissociation constant was determined In vitro in isolated guinea pig trachea after intraduodenal administration (before 10 min); format: ADME, organism-based; conditions: in vivo, other
[38] = system: Cavia porcellus; assay: In vitro LTD4-induced bronchoconstriction in isolated guinea pig trachea by injecting intraduodenally; format: functional; conditions: intraduodenal
[39] = system: Cavia porcellus; assay: In vitro inhibition of ovalbumin-induced bronchoconstriction after intragastrical administration 120 min before agonist into isolated guinea pig trachea; format: functional; conditions: po
[40] = system: Cavia porcellus; assay: In vitro inhibition of LTD4-induced bronchoconstriction after intragastrical administration 120 min before agonist into isolated guinea pig trachea; format: functional; conditions: po

SMILES: Cc1ccc(S(=O)(=O)NC(=O)c2ccc(OCc3ccc4ccccc4n3)cc2)cc1
- inhibition in vivo at 25 mg/kg [1]: < -9%

SMILES: CONC(=O)c1cccc(OCc2ccc3ccccc3n2)c1
- inhibition in vivo at 10 mg/kg [2]: 9%
- inhibition in vivo at 10 mg/kg [3]: 84%
- inhibition in vivo at 3 mg/kg [4]: 64%
- inhibition in vivo at 25 mg/kg [5]: < 77%
- inhibition in vivo at 25 mg/kg [6]: 93%
- inhibition in vivo at 3 mg/kg [7]: -6%
- inhibition in vivo at 25 mg/kg [8]: < -2%
- inhibition in vivo at 25 mg/kg [9]: < 72%

SMILES: Cc1ccc(S(=O)(=O)NC(=O)c2cccc(OCc3ccc4ccccc4n3)c2)cc1
- inhibition in vivo at 50 mg/kg [10]: < 69%
- IC50 [11]: 13.4 µM
- inhibition in vivo at 10 mg/kg [12]: 4%
- inhibition in vivo at 3 mg/kg [13]: 86%
- ED50 [14]: 2.02 mg/kg
- IC50 [15]: 6.2 µM
- ED50 [16]: 0.4 mg/kg
- inhibition in vivo at 25 mg/kg [17]: 91%
- pKb [18]: 7.78
- inhibition in vivo at 3 mg/kg [19]: 83%
- inhibition in vivo at 25 mg/kg [20]: < 80%
- inhibition in vivo at 25 mg/kg [21]: < 57%

SMILES: Cc1ccc(S(=O)(=O)NC(=O)c2cccc(OCc3ncc4ccccc4n3)c2)cc1
- inhibition in vivo at 3 mg/kg [22]: 60%
- inhibition in vivo at 10 mg/kg [23]: 50%
- inhibition in vivo at 25 mg/kg [17]: 99%
- inhibition in vivo at 10 mg/kg [24]: 66%
- inhibition in vivo at 25 mg/kg [25]: 85%

SMILES: O=C(Cc1cccc(OCc2ccc3ccccc3n2)c1)NOCc1ccccc1
- inhibition in vivo at 25 mg/kg [17]: < 67%
- inhibition in vivo at 25 mg/kg [26]: < 26%
- inhibition in vivo at 3 mg/kg [27]: 18%

SMILES: c1cc(Cc2nnn[nH]2)cc(OCc2ccc3ccccc3n2)c1
- inhibition in vivo at 25 mg/kg [28]: < 31%
- inhibition in vivo at 3 mg/kg [29]: 53%
- inhibition in vivo at 50 mg/kg [30]: 30%
- inhibition in vivo at 3 mg/kg [31]: 50%
- ED50 [32]: 3 mg/kg
- ED50 [16]: 3 mg/kg
- inhibition in vivo at 10 mg/kg [33]: 49%
- inhibition in vivo at 25 mg/kg [17]: < 99%
- inhibition in vivo at 25 mg/kg [25]: < 94%
- ED50 [34]: 6.7 mg/kg
- IC50 [35]: 3.9 µM

SMILES: CCCc1c(OCCCCc2nnn[nH]2)ccc(C(C)=O)c1O [TOMELUKAST]
- ED50 [36]: 19 mg/kg
- pKb [37]: 6.55
- ED50 [38]: 6 mg/kg
- ED50 [39]: 38 mg/kg
- ED50 [40]: 32 mg/kg
